Key:
[1] = upper aqueous solution pH attained without precipitating zinc hydroxide; type: physicochemical; settings: 1:3 molar ratio of zinc to ligand
[2] = binding affinity of one ligand with free zinc ion; recorded at pH 7.4

| pH at which zinc hydroxide precipitates [1] | pH at which zinc hydroxide precipitates ([1]; listed as acetate) | zinc-ligand (log Ks1) [2] | Structure (SMILES) |
| --- | --- | --- | --- |
| 5.82 | below 6 |  | CC(=O)O [acetic acid] |
| >10 |  | 5.16 | NCC(=O)O [glycine] |

Source: patent US20090202453A1, “Oral Composition” (Hindustan Lever Limited, priority 2004, published 2009)
